Results as given in ChEMBL document CHEMBL3804759, “Pharmacological Targeting of AMP-Activated Protein Kinase and Opportunities for Computer-Aided Drug Design” (J Med Chem, 2016).

Key:
[1] = biological target: AMP-activated protein kinase (AMPK) alpha-1/beta-1/gamma-1 (Homo sapiens, UniProt P54619+Q13131+Q9Y478); assay: Binding affinity to human recombinant N-terminal AVI-tagged phosphorylated AMPK alpha1beta1gamma1 expressed in Escherichia coli BL21 cells after 1 to 10 mins by biolayer interferometry
Chain of AMP-activated protein kinase (AMPK) alpha-1/beta-1/gamma-1 (P54619 whole entry): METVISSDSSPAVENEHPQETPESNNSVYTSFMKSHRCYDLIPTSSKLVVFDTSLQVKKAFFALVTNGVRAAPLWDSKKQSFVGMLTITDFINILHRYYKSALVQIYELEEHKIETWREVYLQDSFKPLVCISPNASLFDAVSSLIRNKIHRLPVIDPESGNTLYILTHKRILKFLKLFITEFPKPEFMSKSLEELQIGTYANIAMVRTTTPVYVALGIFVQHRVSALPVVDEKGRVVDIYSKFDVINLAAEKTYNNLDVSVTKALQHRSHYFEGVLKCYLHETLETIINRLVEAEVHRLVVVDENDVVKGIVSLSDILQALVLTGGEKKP
Chain of AMP-activated protein kinase (AMPK) alpha-1/beta-1/gamma-1 (Q9Y478 whole entry): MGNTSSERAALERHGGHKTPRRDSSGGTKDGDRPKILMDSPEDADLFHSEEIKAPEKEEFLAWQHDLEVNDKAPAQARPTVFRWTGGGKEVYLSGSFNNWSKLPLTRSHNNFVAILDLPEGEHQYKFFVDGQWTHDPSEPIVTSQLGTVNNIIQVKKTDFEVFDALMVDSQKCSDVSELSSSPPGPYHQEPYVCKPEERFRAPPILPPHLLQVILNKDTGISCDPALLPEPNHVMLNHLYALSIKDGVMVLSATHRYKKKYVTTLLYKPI
Chain of AMP-activated protein kinase (AMPK) alpha-1/beta-1/gamma-1 (Q13131 whole entry): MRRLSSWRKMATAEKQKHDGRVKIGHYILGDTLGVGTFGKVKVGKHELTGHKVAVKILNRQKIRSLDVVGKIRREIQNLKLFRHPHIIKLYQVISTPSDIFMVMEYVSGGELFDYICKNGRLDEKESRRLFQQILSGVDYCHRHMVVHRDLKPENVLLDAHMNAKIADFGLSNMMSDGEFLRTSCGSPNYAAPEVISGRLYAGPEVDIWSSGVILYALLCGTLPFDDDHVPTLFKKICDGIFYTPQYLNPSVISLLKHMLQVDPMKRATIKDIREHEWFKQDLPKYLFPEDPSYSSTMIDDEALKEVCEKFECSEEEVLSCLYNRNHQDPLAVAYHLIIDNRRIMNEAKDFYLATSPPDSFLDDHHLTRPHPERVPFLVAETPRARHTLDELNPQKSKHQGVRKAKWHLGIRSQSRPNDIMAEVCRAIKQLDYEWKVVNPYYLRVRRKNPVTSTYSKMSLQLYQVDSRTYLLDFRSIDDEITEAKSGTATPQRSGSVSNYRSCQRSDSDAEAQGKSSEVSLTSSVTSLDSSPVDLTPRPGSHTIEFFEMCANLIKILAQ

[2] = test system: HEK293; assay: Selectivity ratio of FLAG-tagged wild type AMPK beta1 (unknown origin) expressed in HEK293 cells over FLAG-tagged wild type AMPK beta2 (unknown origin) expressed in HEK293 cells; type: cell-based; conditions: Homo sapiens
[3] = biological target: AMPK alpha1/beta2/gamma1 (Homo sapiens, UniProt O43741+P54619+Q13131); assay: Binding affinity to human recombinant N-terminal AVI-tagged phosphorylated AMPK alpha1beta2gamma1 expressed in Escherichia coli BL21 cells after 1 to 10 mins by biolayer interferometry
Chain of AMPK alpha1/beta2/gamma1 (O43741 whole entry): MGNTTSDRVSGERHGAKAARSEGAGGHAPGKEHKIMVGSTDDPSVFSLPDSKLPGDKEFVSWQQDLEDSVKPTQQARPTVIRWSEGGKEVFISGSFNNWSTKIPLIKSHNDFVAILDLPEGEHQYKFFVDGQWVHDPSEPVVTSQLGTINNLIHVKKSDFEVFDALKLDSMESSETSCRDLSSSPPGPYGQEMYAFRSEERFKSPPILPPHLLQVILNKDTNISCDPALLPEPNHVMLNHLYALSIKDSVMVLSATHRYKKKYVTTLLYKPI
Chain of AMPK alpha1/beta2/gamma1 (P54619 whole entry): as the sequence (P54619 whole entry) above
Chain of AMPK alpha1/beta2/gamma1 (Q13131 whole entry): as the sequence (Q13131 whole entry) above

Kd [1]: 0.51 µM
Kd [3]: 14.5 µM
Structure (SMILES): N#Cc1c(O)c2c(-c3ccc(-c4ccccc4O)cc3)csc2[nH]c1=O
Selectivity ratio [2]: 30
